Measurements taken from patent US11331299B2, “Medicinal use of serrulatane diterpenes” (The University of Sydney, priority 2016, dated 2022).
pEC50, pIC50: −log10 of the molar value. Read-outs that look alike come from different tables or passages of the source.

System: 280 human cancer cell lines
Assay: OncoPanel cell proliferation assay (10-day)
Format: cell-based
Conditions: Homo sapiens; for pEC50: read-out: Cell Count EC50; for pIC50: read-out: Cell Count IC50
[1] = SW872, SW872, Soft Tissue - Sarcoma
[2] = SW 954, SW954, Female GU - Vulva
[3] = SW982, SW982, Soft Tissue - Sarcoma
[4] = SW1353, SW1353, Soft Tissue - Osteosarcoma
[5] = TE 125.T, Soft Tissue - Sarcoma
[6] = TE 381.T, Soft Tissue - Sarcoma
[7] = U2OS, Soft Tissue - Osteosarcoma
[8] = U-118-MG, U-118 MG, CNS - Glioma
[9] = VA-ES-BJ, Soft Tissue - Sarcoma
[10] = WM 266-4, WM-266-4, Skin (Melanoma)
[11] = NCI-H295R, Endocrine - Adrenal gland

CC(C)=CCC[C@H](CO)[C@@H]1CC[C@@H](C)c2c1cc(C)c(O)c2O [Compound 1, 7,8,18-trihydroxyserrulat-14-ene]
pEC50 [1]: 6.02
GI50 (SW872, SW872, Soft Tissue - Sarcoma, read-out: Cell Count GI50): 960 nM
pIC50 [1]: 6.02
pEC50 (SW900, SW900, Lung - SCLC): 5.48
GI50 (SW900, SW900, Lung - SCLC, read-out: Cell Count GI50): 3240 nM
pIC50 (SW900, SW900, Lung - SCLC): 5.48
pEC50 (SW948, SW948, Colon): 5.66
GI50 (SW948, SW948, Colon, read-out: Cell Count GI50): 2200 nM
pIC50 (SW948, SW948, Colon): 5.66
pEC50 [2]: 5.12
GI50 (SW 954, SW954, Female GU - Vulva, read-out: Cell Count GI50): 7600 nM
pIC50 [2]: 5.12
pEC50 [3]: 5.97
GI50 (SW982, SW982, Soft Tissue - Sarcoma, read-out: Cell Count GI50): 1070 nM
pIC50 [3]: 5.97
pEC50 (SW1088, SW1088, CNS - Glioma): 5.61
GI50 (SW1088, SW1088, CNS - Glioma, read-out: Cell Count GI50): 2430 nM
pIC50 (SW1088, SW1088, CNS - Glioma): 5.61
pEC50 [4]: 6.00
GI50 (SW1353, SW1353, Soft Tissue - Osteosarcoma, read-out: Cell Count GI50): 990 nM
pIC50 [4]: 6.00
pEC50 (SW1417, SW1417, Colon): 5.50
GI50 (SW1417, SW1417, Colon, read-out: Cell Count GI50): 3070 nM
pIC50 (SW1417, SW1417, Colon): 5.50
pEC50 (SW1463, SW1463, Colon): 5.43
GI50 (SW1463, SW1463, Colon, read-out: Cell Count GI50): 3710 nM
pIC50 (SW1463, SW1463, Colon): 5.43
pEC50 (SW1783, SW1783, CNS - Glioma): 5.50
GI50 (SW1783, SW1783, CNS - Glioma, read-out: Cell Count GI50): 3090 nM
pIC50 (SW1783, SW1783, CNS - Glioma): 5.50
pEC50 (SW-403, SW403, Colon): 5.09
GI50 (SW-403, SW403, Colon, read-out: Cell Count GI50): 7890 nM
pIC50 (SW-403, SW403, Colon): 5.09
pEC50 (SW-620, SW620, Colon): 5.83
GI50 (SW-620, SW620, Colon, read-out: Cell Count GI50): 1480 nM
pIC50 (SW-620, SW620, Colon): 5.83
pEC50 (SiHa, Female GU - Cervix): 5.28
GI50 (SiHa, Female GU - Cervix, read-out: Cell Count GI50): 5170 nM
pIC50 (SiHa, Female GU - Cervix): 5.28
pEC50 (T24, Bladder): 5.84
GI50 (T24, Bladder, read-out: Cell Count GI50): 1440 nM
pIC50 (T24, Bladder): 5.84
GI50 (T47D, Breast, read-out: Cell Count GI50): 4280 nM
GI50 (T98G, CNS - Glioma, read-out: Cell Count GI50): 2050 nM
pEC50 (TCC-SUP, TCCSUP, Bladder): 5.76
GI50 (TCC-SUP, TCCSUP, Bladder, read-out: Cell Count GI50): 1720 nM
pIC50 (TCC-SUP, TCCSUP, Bladder): 5.76
pEC50 [5]: 5.19
GI50 (TE 125.T, Soft Tissue - Sarcoma, read-out: Cell Count GI50): 1480 nM
pIC50 [5]: 5.04
pEC50 [6]: 5.79
GI50 (TE 381.T, Soft Tissue - Sarcoma, read-out: Cell Count GI50): 1590 nM
pIC50 [6]: 5.79
pEC50 (TF-1, Leukemia): 5.68
GI50 (TF-1, Leukemia, read-out: Cell Count GI50): 1980 nM
pIC50 (TF-1, Leukemia): 5.68
pEC50 (THP-1, Thp1, Leukemia): 5.86
GI50 (THP-1, Thp1, Leukemia, read-out: Cell Count GI50): 1340 nM
pIC50 (THP-1, Thp1, Leukemia): 5.86
pEC50 (TUR, Lymphoma): 5.29
GI50 (TUR, Lymphoma, read-out: Cell Count GI50): 5080 nM
pIC50 (TUR, Lymphoma): 5.29
pEC50 [7]: 5.78
GI50 (U2OS, Soft Tissue - Osteosarcoma, read-out: Cell Count GI50): 1650 nM
pIC50 [7]: 5.78
pEC50 (U138-MG, U-138MG, CNS - Glioma): 5.20
GI50 (U138-MG, U-138MG, CNS - Glioma, read-out: Cell Count GI50): 6150 nM
pIC50 (U138-MG, U-138MG, CNS - Glioma): 5.20
pEC50 (U266B1, Myeloma): 5.49
GI50 (U266B1, Myeloma, read-out: Cell Count GI50): 3080 nM
pIC50 (U266B1, Myeloma): 5.49
pEC50 (U-87 MG, CNS - Glioma): 5.67
GI50 (U-87 MG, CNS - Glioma, read-out: Cell Count GI50): 2040 nM
pIC50 (U-87 MG, CNS - Glioma): 5.67
pEC50 [8]: 5.34
GI50 (U-118-MG, U-118 MG, CNS - Glioma, read-out: Cell Count GI50): 4490 nM
pIC50 [8]: 5.34
pEC50 (UMUC3, UM-UC-3, Bladder): 5.73
GI50 (UMUC3, UM-UC-3, Bladder, read-out: Cell Count GI50): 1840 nM
pIC50 (UMUC3, UM-UC-3, Bladder): 5.73
pEC50 [9]: 5.44
GI50 (VA-ES-BJ, Soft Tissue - Sarcoma, read-out: Cell Count GI50): 3550 nM
pIC50 [9]: 5.44
pEC50 [10]: 5.94
GI50 (WM 266-4, WM-266-4, Skin (Melanoma), read-out: Cell Count GI50): 1140 nM
pIC50 [10]: 5.94
pEC50 (WiDr, Colon): 5.63
GI50 (WiDr, Colon, read-out: Cell Count GI50): 2310 nM
pIC50 (WiDr, Colon): 5.63
pEC50 (Y79, Eye): 5.25
GI50 (Y79, Eye, read-out: Cell Count GI50): 5330 nM
pIC50 (Y79, Eye): 5.25
pEC50 (YAPC, Pancreas): 5.72
GI50 (YAPC, Pancreas, read-out: Cell Count GI50): 1900 nM
pIC50 (YAPC, Pancreas): 5.72
pEC50 [11]: 4.83
pIC50 [11]: 4.83
pEC50 (T47D, Breast): 5.33
pIC50 (T47D, Breast): 5.33
pEC50 (T98G, CNS - Glioma): 5.69
pIC50 (T98G, CNS - Glioma): 5.69
GI50 (read-out: GI50): 400 to 1000 nM
